In patent US20160281125A1, “ANTIMICROBIAL COMPOUND SUSCEPTIBILITY TEST” (priority 2013, published 2016):

Assays:
K. pneumo BAA-1705 (KPC) = experiment: Selective lysis test, OD600, meropenem and cefotaxime (Example 2); format: cell-based, K. pneumoniae
Method: (§1) In this experiment the following strains were tested: strain K. pneumoniae 13882 (previously considered meropenem sensitive and cefotaxime sensitive); E. coli BAA-197 (ESBL) (which expresses an extended-spectrum (beta)-lactamase enzyme and was previously considered meropenem sensitive and cefotaxime resistant); K. pneumoniae BAA-1705 (KPC) (which expresses a carbapenemase enzyme and was previously considered meropenem resistant and cefotaxime resistant); and K. pneumoniae BAA-2146 (NDM1) (which expresses the metallo-beta-lactamase-1 enzyme and was previously considered meropenem resistant and cefotaxime resistant).
(§2) An isolated colony from an overnight Tryptocase Soy Agar (TSA) plate of each bacteria was suspended in 1 ml Tryptocase Soy Broth (TSB) in a 5 ml BD polystyrene round bottom tube. TSB cultures were incubated at 37° C. for 1.5 hours shaking. Three 250 μl aliquots of each stationary-phase culture were then transferred to three 2 ml Eppendorf microcentrifuge tubes. One tube contained 500 μl of Normal Saline (BD); the second tube contained 500 μl Normal Saline with meropenem at 10 μg/ml; and the third tube contained 500 μl Normal Saline with cefotaxime (abbreviated […]) at 10 μg/ml. Tubes were inverted then incubated at 37° C. stagnant for thirty minutes. Then […] of lysis buffer (0.5% SDS in PSB) was added to each tube and each tube was vortexed for 5 seconds. Post incubation, all tubes were spun at 10000 G for 5 minutes. Supernatant was decanted and the pellet resuspended in Normal Saline. Tubes were vortexed. OD600 was measured using Eppendorf uvettes in a spectrophotometer. The delta between the control and the meropenem normal saline, or the control and the cefotaxime normal saline was used to determine susceptibility.

K. pneumo 13882 = experiment: as above; format: cell-based, K. pneumoniae
Method: as §1, §2

E. coli JM109 = experiment: Selective lysis test, OD600 turbidity (Example 1); format: cell-based, Escherichia coli
Method: (§3) An isolated colony from an overnight Tryptocase Soy Agar (TSA) plate of each bacterial strain was suspended in 1 ml Tryptocasc Soy Broth (TSB) in a 5 ml BD polystyrene round bottom tube. TSB cultures were incubated shaking at 37° C. overnight. Ten of the overnight culture was inoculated into lml TSB and incubated shaking at 37° C. for three hours. Two […] aliquots of each log-phase culture were then transferred to two 2 ml Eppendorf microcentrifuge tubes. One tube contained 5000 of Normal Saline (BD); the second tube contained 5000 Normal Saline with meropenem at 10 μg/ml (final concentration of meropenem of 6.67 10 μg/ml). Tubes were inverted and then incubated at 37° C. stagnant for thirty minutes. Then […] of lysis buffer (0.5% SDS in PSB) (final concentration of SDS of 0.125%) was added to each tube and the tubes were vortexed for 5 seconds. Post incubation, all tubes were spun at 10000 G for 5 minutes. Supernatant was decanted and the pellet resuspended in Normal Saline. Tubes were vortexed again. OD600 was measured using Eppendorf uvettes in a spectrophotometer. The delta between the OD600 of the normal saline control and the OD600 for the test sample exposed to meropenem in normal saline was used to determine susceptibility of the bacterial strain to meropenem.

E. coli 25922 = experiment: Selective lysis test, OD600 turbidity (Example 1); format: cell-based, Escherichia coli
Method: as §3

E. coli 35218 = experiment: Selective lysis test, OD600 turbidity (Example 1); format: cell-based, Escherichia coli
Method: as §3

E. coli 23848 = experiment: Selective lysis test, OD600 turbidity (Example 1); format: cell-based, Escherichia coli
Method: as §3

E. coli ESBL 790 = experiment: Selective lysis test, OD600 turbidity (Example 1); format: cell-based, Escherichia coli
Method: as §3

E. coli ESBL Baa197 = experiment: Selective lysis test, OD600 turbidity (Example 1); format: cell-based, Escherichia coli; conditions: for % Change: OD600 vs control without meropenem
Method: as §3

E. coli 51422 = experiment: Selective lysis test, OD600 turbidity (Example 1); format: cell-based, Escherichia coli
Method: as §3

E. coli strain 35218 = experiment: Carbapenem test, Triton fixation buffer and BacUni QuickFISH staining (Example 4); format: cell-based; conditions: FIG. 9; E. coli 35218; 10 μg/ml
Method: (§4) An isolated colony from an overnight Tryptocase Soy Agar (TSA) plate for each bacteria was suspended in 1 ml Tryptocase Soy Broth (TSB) in a 5 ml BD polystyrene round bottom tube. TSB cultures were incubated at 37° C. for 1.5 hours shaking. […] of each stationary-phase culture were transferred to 2 ml Eppendorf microcentrifuge tubes containing 500 μl of Normal Saline (BD); or 500 μl Normal Saline with imipenem, ertapenem, or meropenem at a concentration of […], […], or 40 μg/ml (26.67 μg/ml final concentration). Tubes were inverted then incubated at 37° C. stagnant for thirty minutes. Then 10 μl from each tube was pipetted onto plain glass slide on a 55° C. heat block, followed by 25 μl fixation buffer (0.5% T×100, 100 mM Tris pH 9, 24% Ethanol, and 10 mM NaCl); slide is incubated until sample is dry. Ten μl of BacUni QuickFISH hybridization buffer was added to each slide followed by a 22×22 mm coverslip. The slide was then incubated at 55° C. for 15 minutes. The slides were viewed on a fluorescence microscope 60× oil immersion on Dual TxR/FITC. Images were taken with a 1 second exposure.
(§5) The control fixation in this experiment has all the same components, except no Triton X-100. This was done to assess whether the selective lysis step is required to resolve a difference between susceptible and resistant bacteria.

[1] = test system: K. pneumoniae strain 13882; experiment: as above; format: cell-based; conditions: K. pneumoniae 13882
Method: as §4, §5

[2] = test system: K. pneumoniae strain BAA2146 NDM+; experiment: as above; format: cell-based
Method: as §4, §5

[3] = OD600 vs control without meropenem
[4] = meropenem 10 μg/ml, 30 min, SDS lysis buffer + vortex

## C[C@@H](O)[C@H]1C(=O)N2C(C(=O)O)=C(S[C@@H]3CN[C@H](C(=O)N(C)C)C3)[C@H](C)[C@H]12 [meropenem]
K. pneumo BAA-1705 (KPC); K. pneumo BAA-1705 (KPC), OD600 vs control
  % diff: 16.6%
K. pneumo BAA-1705 (KPC); K. pneumo BAA-1705 (KPC), antibiotic 10 μg/ml, 30 min, SDS lysis buffer + vortex, 1.5 h culture
  OD600: 0.423
K. pneumo BAA-1705 (KPC); K. pneumoniae BAA-1705 (KPC)
  assay score (sensitive or resistant): resistant
K. pneumo 13882; K. pneumo 13882, OD600 vs control
  % diff: 65.1%
K. pneumo 13882; K. pneumo 13882, antibiotic 10 μg/ml, 30 min, SDS lysis buffer + vortex, 1.5 h culture
  OD600: 0.127
K. pneumo 13882; K. pneumoniae 13882
  assay score (sensitive or resistant): sensitive
E. coli JM109
  R or S: S (a percentage change of greater than about 85% indicates a strain is susceptible)
E. coli JM109; [3]
  % Change: 88%
E. coli JM109; [4]
  Mero OD600: 0.079
E. coli 25922
  R or S: S (a percentage change of greater than about 85% indicates a strain is susceptible)
E. coli 25922; [3]
  % Change: 97%
E. coli 25922; [4]
  Mero OD600: 0.064
E. coli 35218
  R or S: S (a percentage change of greater than about 85% indicates a strain is susceptible)
E. coli 35218; [3]
  % Change: 90%
E. coli 35218; [4]
  Mero OD600: 0.1
E. coli 23848
  R or S: S (a percentage change of greater than about 85% indicates a strain is susceptible)
E. coli 23848; [3]
  % Change: 97%
E. coli 23848; [4]
  Mero OD600: 0.021
E. coli ESBL 790
  R or S: S (a percentage change of greater than about 85% indicates a strain is susceptible)
E. coli ESBL 790; [3]
  % Change: 87%
E. coli ESBL 790; [4]
  Mero OD600: 0.126
E. coli ESBL Baa197
  R or S: S (a percentage change of greater than about 85% indicates a strain is susceptible)
  % Change: 74%
E. coli ESBL Baa197; listed as Mero
  % Change: 74%
E. coli ESBL Baa197; [4]
  Mero OD600: 0.236
E. coli 51422
  R or S: S (a percentage change of greater than about 85% indicates a strain is susceptible)
E. coli 51422; [3]
  % Change: 98%
E. coli 51422; [4]
  Mero OD600: 0.031
E. coli strain 35218
  test result (susceptibility or resistance) by BacUni QuickFISH staining: detect susceptibility
[1]; FIG. 7, 10 μg/ml meropenem, fixation buffer with 0.5% Triton X-100
  BacUni QuickFISH stained intact cells after meropenem and fixation buffer: near complete absence of BacUni QuickFISH™ stained intact cells
[1]; FIG. 10, 10 μg/ml
  test result (susceptibility or resistance) by BacUni QuickFISH staining: detect susceptibility
[2]; FIG. 8, 10 μg/ml meropenem, fixation buffer with 0.5% Triton X-100
  BacUni QuickFISH stained intact cells after meropenem and fixation buffer: near complete absence of BacUni QuickFISH™ stained intact cells
[2]; FIG. 11, 10 μg/ml
  test result (susceptibility or resistance) by BacUni QuickFISH staining: detect resistance
